{
  "source": "paper PMC5218480",
  "about": "(PLoS ONE, 2017)",
  "system": "MV-4-11 cells",
  "experiment": "Gene expression microarray analysis (Affymetrix PrimeView) and GSEA",
  "format": "cell-based, human",
  "set-up": "RFU PODN (11730768_x_at) / Fold change /veh PODN (11730768_x_at) / RFU LINC00158 (11744669_a_at) / Fold change /veh LINC00158 (11744669_a_at) / RFU DUSP10 (11751237_a_at) / Fold change /veh DUSP10 (11751237_a_at) / RFU ID3 (11757404_x_at) / Fold change /veh ID3 (11757404_x_at) / RFU PLEKHG5 (11737974_s_at) / Fold change /veh PLEKHG5 (11737974_s_at) / RFU LRRC4B (11730491_at) / Fold change /veh LRRC4B (11730491_at) / RFU GIMAP4 (11747438_a_at) / Fold change /veh GIMAP4 (11747438_a_at) / RFU KRT8 (11758183_x_at) / Fold change /veh KRT8 (11758183_x_at) / RFU CNN1 (11734310_a_at) / Fold change /veh CNN1 (11734310_a_at) / RFU VPS37D (11726825_at) / Fold change /veh VPS37D (11726825_at) / RFU C10orf10 (11716522_x_at) / Fold change /veh C10orf10 (11716522_x_at) / RFU KIR2DL2 /// KIR2DL4 /// KIR2DL5A /// KIR2DL5B /// KIR2DS1 /// KIR2DS2 /// KIR2DS3 /// KIR2DS4 /// KIR3DL3 /// KIR3DL3 /// KIR3DS1 (11738374_at) / Fold change /veh KIR2DL2 /// KIR2DL4 /// KIR2DL5A /// KIR2DL5B /// KIR2DS1 /// KIR2DS2 /// KIR2DS3 /// KIR2DS4 /// KIR3DL3 /// KIR3DL3 /// KIR3DS1 (11738374_at) / RFU C1QL1 (11718748_at) / Fold change /veh C1QL1 (11718748_at) / RFU TMPRSS4 (11747572_a_at) / Fold change /veh TMPRSS4 (11747572_a_at) / RFU HAMP (11756126_x_at) / Fold change /veh HAMP (11756126_x_at) / RFU RNFT2 (11725882_a_at) / Fold change /veh RNFT2 (11725882_a_at) / RFU NR4A2 (11747474_a_at) / Fold change /veh NR4A2 (11747474_a_at) / RFU ABCC12 (11746883_a_at) / Fold change /veh ABCC12 (11746883_a_at) / RFU TMEM136 (11760407_x_at) / Fold change /veh TMEM136 (11760407_x_at) / RFU CLDN22 /// WWC2 (11732394_at) / Fold change /veh CLDN22 /// WWC2 (11732394_at) / RFU HLA-DPB1 (11760878_x_at) / Fold change /veh HLA-DPB1 (11760878_x_at) / RFU SPINT1 (11716480_a_at) / Fold change /veh SPINT1 (11716480_a_at) / RFU GAP43 (11754022_s_at) / Fold change /veh GAP43 (11754022_s_at) / RFU A4GNT (11735810_at) / Fold change /veh A4GNT (11735810_at) / RFU PRB3 (11715151_x_at) / Fold change /veh PRB3 (11715151_x_at) / RFU TUBB4B (11761932_at) / Fold change /veh TUBB4B (11761932_at) / RFU CAPN14 (11732068_a_at) / Fold change /veh CAPN14 (11732068_a_at) / RFU TMCC2 (11721928_a_at) / Fold change /veh TMCC2 (11721928_a_at) / RFU IRGQ (11745062_a_at) / Fold change /veh IRGQ (11745062_a_at) / RFU FAM174B (11720279_a_at) / Fold change /veh FAM174B (11720279_a_at) / RFU TMPRSS4 (11748680_a_at) / Fold change /veh TMPRSS4 (11748680_a_at) / RFU FAM212B (11763350_a_at) / Fold change /veh FAM212B (11763350_a_at) / RFU PLEKHG5 (11743358_a_at) / Fold change /veh PLEKHG5 (11743358_a_at) / RFU ZSCAN30 (11745921_a_at) / Fold change /veh ZSCAN30 (11745921_a_at) / RFU CMKLR1 (11741424_a_at) / Fold change /veh CMKLR1 (11741424_a_at) / RFU LOC101060620 /// MAPK8IP1 (11723275_at) / Fold change /veh LOC101060620 /// MAPK8IP1 (11723275_at) / RFU SPTSSB (11747773_x_at) / Fold change /veh SPTSSB (11747773_x_at) / RFU PRSS12 (11739890_at) / Fold change /veh PRSS12 (11739890_at) / RFU BIN1 (11741810_x_at) / Fold change /veh BIN1 (11741810_x_at) / RFU WNT11 (11732464_a_at) / Fold change /veh WNT11 (11732464_a_at) / RFU C10orf10 (11716521_a_at) / Fold change /veh C10orf10 (11716521_a_at) / RFU C5orf56 (11738089_at) / Fold change /veh C5orf56 (11738089_at) / RFU CYB561 (11721691_x_at) / Fold change /veh CYB561 (11721691_x_at) / RFU ANKRD19P (11752326_a_at) / Fold change /veh ANKRD19P (11752326_a_at) / RFU OR2T12 /// OR2T33 /// OR2T8 (11738714_s_at) / Fold change /veh OR2T12 /// OR2T33 /// OR2T8 (11738714_s_at) / RFU VCAN (11748164_a_at) / Fold change /veh VCAN (11748164_a_at) / RFU JSRP1 (11732532_at) / Fold change /veh JSRP1 (11732532_at) / RFU KRTAP10-11 (11738290_x_at) / Fold change /veh KRTAP10-11 (11738290_x_at) / RFU MYO3A (11730013_a_at) / Fold change /veh MYO3A (11730013_a_at) / RFU EBF3 (11725865_a_at) / Fold change /veh EBF3 (11725865_a_at) / RFU CAMK2N1 (11719241_x_at) / Fold change /veh CAMK2N1 (11719241_x_at) / RFU C5orf56 (11738088_a_at) / Fold change /veh C5orf56 (11738088_a_at) / RFU OLFML3 (11715873_a_at) / Fold change /veh OLFML3 (11715873_a_at) / RFU LOC100653217 /// NTM (11731650_a_at) / Fold change /veh LOC100653217 /// NTM (11731650_a_at) / RFU MAPK11 (11762145_a_at) / Fold change /veh MAPK11 (11762145_a_at) / RFU FIZ1 (11724087_x_at) / Fold change /veh FIZ1 (11724087_x_at) / RFU OASL (11726364_x_at) / Fold change /veh OASL (11726364_x_at) / RFU SOX15 (11748057_x_at) / Fold change /veh SOX15 (11748057_x_at) / RFU CD79A (11719716_a_at) / Fold change /veh CD79A (11719716_a_at) / RFU HIST1H1D (11736915_at) / Fold change /veh HIST1H1D (11736915_at) / RFU CASKIN2 (11723855_a_at) / Fold change /veh CASKIN2 (11723855_a_at) / RFU LOC730098 (11760151_x_at) / Fold change /veh LOC730098 (11760151_x_at) / RFU OR4N2 (11742367_at) / Fold change /veh OR4N2 (11742367_at) / RFU PRRT2 (11749266_a_at) / Fold change /veh PRRT2 (11749266_a_at) / RFU SNX32 (11753110_a_at) / Fold change /veh SNX32 (11753110_a_at) / RFU CDHR5 (11726645_a_at) / Fold change /veh CDHR5 (11726645_a_at) / RFU RCAN1 (11760418_a_at) / Fold change /veh RCAN1 (11760418_a_at) / RFU FAM167A (11723789_a_at) / Fold change /veh FAM167A (11723789_a_at) / RFU FAM26E (11764081_at) / Fold change /veh FAM26E (11764081_at) / RFU ISYNA1 (11749810_s_at) / Fold change /veh ISYNA1 (11749810_s_at) / RFU ACY1 (11761880_at) / Fold change /veh ACY1 (11761880_at) / RFU 11764098_at / Fold change /veh 11764098_at / RFU SAMD14 (11745864_x_at) / Fold change /veh SAMD14 (11745864_x_at) / RFU NPB (11741838_a_at) / Fold change /veh NPB (11741838_a_at) / RFU TMPRSS6 (11731388_a_at) / Fold change /veh TMPRSS6 (11731388_a_at) / RFU KRTAP10-2 (11738614_at) / Fold change /veh KRTAP10-2 (11738614_at) / RFU ARHGAP8 /// PRR5-ARHGAP8 (11727945_x_at) / Fold change /veh ARHGAP8 /// PRR5-ARHGAP8 (11727945_x_at) / RFU KRTAP5-7 /// NADSYN1 (11734609_at) / Fold change /veh KRTAP5-7 /// NADSYN1 (11734609_at) / RFU RASL12 (11751679_a_at) / Fold change /veh RASL12 (11751679_a_at) / RFU CDKN2B (11736163_a_at) / Fold change /veh CDKN2B (11736163_a_at) / RFU PRF1 (11729649_at) / Fold change /veh PRF1 (11729649_at) / RFU, ZNF638 /// ZNF638-IT1 / Fold change vs veh, ZNF638 /// ZNF638-IT1 / RFU, PANK3 / Fold change vs veh, PANK3 / RFU, SH3YL1 / Fold change vs veh, SH3YL1 / RFU, ZEB2 / Fold change vs veh, ZEB2 / RFU, NRIP1 / Fold change vs veh, NRIP1 / RFU, PTTG1IP / Fold change vs veh, PTTG1IP / RFU, CAPN2 / Fold change vs veh, CAPN2 / RFU, MED14 / Fold change vs veh, MED14 / RFU, SNORA58 / Fold change vs veh, SNORA58 / RFU, C1orf63 / Fold change vs veh, C1orf63 / RFU, LRRFIP1 / Fold change vs veh, LRRFIP1 / RFU, NDUFAF7 / Fold change vs veh, NDUFAF7 / RFU, SLC12A2 / Fold change vs veh, SLC12A2 / RFU, IBTK / Fold change vs veh, IBTK / RFU, ESF1 / Fold change vs veh, ESF1 / Fold change vs veh, TMEM50B / RFU, TAOK1 / Fold change vs veh, TAOK1 / RFU, ACBD3 / Fold change vs veh, ACBD3 / RFU, TMA16 / Fold change vs veh, TMA16 / RFU, RWDD3 / Fold change vs veh, RWDD3 / RFU, BCAT1 / Fold change vs veh, BCAT1 / RFU, EDEM3 / Fold change vs veh, EDEM3 / RFU, TMEM33 / Fold change vs veh, TMEM33 / RFU, WDR75 / Fold change vs veh, WDR75 / RFU, AHCTF1 / Fold change vs veh, AHCTF1 / RFU, TFRC / Fold change vs veh, TFRC / RFU, ZDHHC17 / Fold change vs veh, ZDHHC17 / RFU, NOM1 / Fold change vs veh, NOM1 / RFU, ARL8B / Fold change vs veh, ARL8B / RFU, ZBTB11 / Fold change vs veh, ZBTB11 / RFU, TAMM41 / Fold change vs veh, TAMM41 / RFU, KIAA1704 /// LOC100996395 / Fold change vs veh, KIAA1704 /// LOC100996395 / RFU, ING1 / Fold change vs veh, ING1 / RFU, TRMT61B / Fold change vs veh, TRMT61B / RFU, FUBP3 / Fold change vs veh, FUBP3 / RFU, TP53 / Fold change vs veh, TP53 / RFU, TNKS2 / Fold change vs veh, TNKS2 / RFU, ZFP14 / Fold change vs veh, ZFP14 / RFU, ACTR2 / Fold change vs veh, ACTR2 / RFU, PPP3R1 / Fold change vs veh, PPP3R1 / RFU, PIK3R1 / Fold change vs veh, PIK3R1 / RFU, HNRNPA1 / Fold change vs veh, HNRNPA1 / RFU, RNF170 / Fold change vs veh, RNF170 / RFU, ZNF28 / Fold change vs veh, ZNF28 / RFU, RNGTT / Fold change vs veh, RNGTT / RFU, OGT / Fold change vs veh, OGT / RFU, BRD1 / Fold change vs veh, BRD1 / RFU, MARS / Fold change vs veh, MARS / RFU, ZNF655 / Fold change vs veh, ZNF655 / RFU, FAHD1 / Fold change vs veh, FAHD1 / RFU, BDP1 / Fold change vs veh, BDP1 / RFU, LRRCC1 / Fold change vs veh, LRRCC1 / RFU, ARID1A / Fold change vs veh, ARID1A / RFU, ZNF146 / Fold change vs veh, ZNF146 / RFU, ZNF330 / Fold change vs veh, ZNF330 / RFU, GPN3 / Fold change vs veh, GPN3 / RFU, C9orf123 / Fold change vs veh, C9orf123 / RFU, N4BP2L2 / Fold change vs veh, N4BP2L2 / RFU, ARFIP1 / Fold change vs veh, ARFIP1 / RFU, FAM179B / Fold change vs veh, FAM179B / RFU, BCL10 / Fold change vs veh, BCL10 / RFU, UHRF1BP1L / Fold change vs veh, UHRF1BP1L / RFU, BET1 / Fold change vs veh, BET1 / RFU, CNOT2 / Fold change vs veh, CNOT2 / RFU, ZNF268 / Fold change vs veh, ZNF268 / Fold change vs veh, ZNF507 / RFU, DGCR2 / Fold change vs veh, DGCR2 / RFU, WDSUB1 / Fold change vs veh, WDSUB1 / Fold change vs veh, HSP90B1 /// MIR3652 / RFU, ADSS / Fold change vs veh, ADSS / RFU, GK / Fold change vs veh, GK / RFU, ZNF148 / Fold change vs veh, ZNF148 / RFU, TAF9 / Fold change vs veh, TAF9 / RFU, SLC1A5 / Fold change vs veh, SLC1A5 / RFU, SLMO2 / Fold change vs veh, SLMO2 / RFU, ABCC4 / Fold change vs veh, ABCC4 / RFU, LOC101060439 /// RAP1B / Fold change vs veh, LOC101060439 /// RAP1B / RFU, RFX7 / Fold change vs veh, RFX7 / RFU, GTPBP10 / Fold change vs veh, GTPBP10 / RFU, CNEP1R1 / Fold change vs veh, CNEP1R1 / RFU, BIVM-ERCC5 /// ERCC5 / Fold change vs veh, BIVM-ERCC5 /// ERCC5 / RFU, ILF3 / Fold change vs veh, ILF3 / RFU 11762660_at / Fold change /veh 11762660_at / RFU VCAN (11757783_s_at) / Fold change /veh VCAN (11757783_s_at) / RFU DDX43 (11728927_at) / Fold change /veh DDX43 (11728927_at) / RFU KRT8 (11758188_x_at) / Fold change /veh KRT8 (11758188_x_at) / RFU NKD1 (11759106_at) / Fold change /veh NKD1 (11759106_at) / RFU SRD5A1 (11742802_a_at) / Fold change /veh SRD5A1 (11742802_a_at) / RFU TPSAB1 /// TPSB2 (11721975_s_at) / Fold change /veh TPSAB1 /// TPSB2 (11721975_s_at) / RFU GSTM3 (11746129_a_at) / Fold change /veh GSTM3 (11746129_a_at) / RFU IL23R (11737362_x_at) / Fold change /veh IL23R (11737362_x_at) / RFU TMEM51 (11727254_a_at) / Fold change /veh TMEM51 (11727254_a_at) / RFU PIWIL2 (11732686_x_at) / Fold change /veh PIWIL2 (11732686_x_at) / RFU ORM1 (11744905_x_at) / Fold change /veh ORM1 (11744905_x_at) / RFU CCDC152 (11743942_at) / Fold change /veh CCDC152 (11743942_at) / RFU ECM1 (11717891_a_at) / Fold change /veh ECM1 (11717891_a_at) / RFU IL23R (11748794_a_at) / Fold change /veh IL23R (11748794_a_at) / RFU TNFAIP8L3 (11732012_x_at) / Fold change /veh TNFAIP8L3 (11732012_x_at) / RFU MBOAT4 (11741988_at) / Fold change /veh MBOAT4 (11741988_at) / RFU 11764193_at / Fold change /veh 11764193_at / RFU TMEM53 (11763286_at) / Fold change /veh TMEM53 (11763286_at) / RFU MAGEB2 (11727129_at) / Fold change /veh MAGEB2 (11727129_at) / RFU TMEM200A (11744735_a_at) / Fold change /veh TMEM200A (11744735_a_at) / RFU CCDC152 (11751479_a_at) / Fold change /veh CCDC152 (11751479_a_at) / RFU FAM211A (11726209_a_at) / Fold change /veh FAM211A (11726209_a_at) / RFU RGS16 (11746705_a_at) / Fold change /veh RGS16 (11746705_a_at) / RFU VCAN (11755009_s_at) / Fold change /veh VCAN (11755009_s_at) / RFU RHOB (11743442_s_at) / Fold change /veh RHOB (11743442_s_at) / RFU RGS16 (11720943_a_at) / Fold change /veh RGS16 (11720943_a_at) / RFU RGS16 (11720944_at) / Fold change /veh RGS16 (11720944_at) / RFU, VPS4B / Fold change vs veh, VPS4B / RFU, CREB1 / Fold change vs veh, CREB1 / RFU, DNAJC13 / Fold change vs veh, DNAJC13 / RFU, GNAQ / Fold change vs veh, GNAQ / RFU, CDK5R1 / Fold change vs veh, CDK5R1 / RFU, ZRANB3 / Fold change vs veh, ZRANB3 / RFU, CUL4A / Fold change vs veh, CUL4A / RFU, CCNY / Fold change vs veh, CCNY / RFU, UFL1 / Fold change vs veh, UFL1 / RFU, COG3 / Fold change vs veh, COG3 / RFU, DIAPH2 / Fold change vs veh, DIAPH2 / RFU, SKA2 / Fold change vs veh, SKA2 / RFU, AFF3 / Fold change vs veh, AFF3 / RFU, LMF1 / Fold change vs veh, LMF1 / RFU, IPO11 / Fold change vs veh, IPO11 / RFU, DFFB / Fold change vs veh, DFFB / RFU, FOXP1 / Fold change vs veh, FOXP1 / RFU, CARD8 / Fold change vs veh, CARD8 / RFU, STRN3 / Fold change vs veh, STRN3 / RFU, ADK / Fold change vs veh, ADK / RFU, RASSF2 / Fold change vs veh, RASSF2 / RFU, WIPF1 / Fold change vs veh, WIPF1 / RFU, LARP1B / Fold change vs veh, LARP1B / RFU, RASA1 / Fold change vs veh, RASA1 / RFU, RB1 / Fold change vs veh, RB1 / RFU, PPFIA1 / Fold change vs veh, PPFIA1 / RFU, MAT2A / Fold change vs veh, MAT2A / RFU, CCT5 / Fold change vs veh, CCT5 / RFU, WDR92 / Fold change vs veh, WDR92 / RFU, CUX1 / Fold change vs veh, CUX1 / RFU, TTC7A / Fold change vs veh, TTC7A / RFU, TMEM135 / Fold change vs veh, TMEM135 / RFU, DEPTOR / Fold change vs veh, DEPTOR / RFU, CPM / Fold change vs veh, CPM / RFU, DNAJB6 / Fold change vs veh, DNAJB6 / RFU, CACNA2D3 / Fold change vs veh, CACNA2D3 / RFU, DTX4 / Fold change vs veh, DTX4 / RFU, TFCP2 / Fold change vs veh, TFCP2 / RFU, GMCL1 /// GMCL1P1 / Fold change vs veh, GMCL1 /// GMCL1P1 / RFU, AEBP2 / Fold change vs veh, AEBP2 / RFU, SNHG1 /// SNORD22 /// SNORD25 /// SNORD26 /// SNORD27 /// SNORD28 /// SNORD29 /// SNORD31 / Fold change vs veh, SNHG1 /// SNORD22 /// SNORD25 /// SNORD26 /// SNORD27 /// SNORD28 /// SNORD29 /// SNORD31 / Fold change (Aza/veh), C12orf56 (ProbeSet 11735607_a_at) / Fold change (ACY-1035/veh), C12orf56 (ProbeSet 11735607_a_at) / Fold change (Aza/veh), FGFR1OP (ProbeSet 11751329_s_at) / Fold change (ACY-1035/veh), FGFR1OP (ProbeSet 11751329_s_at) / Fold change (Aza/veh), VPS36 (ProbeSet 11739960_a_at) / Fold change (ACY-1035/veh), VPS36 (ProbeSet 11739960_a_at) / RFU SYPL1 (11715823_x_at) / Fold change /veh SYPL1 (11715823_x_at) / RFU IGFBP7 (11715501_s_at) / Fold change /veh IGFBP7 (11715501_s_at) / RFU REEP3 (11722064_at) / Fold change /veh REEP3 (11722064_at) / RFU IGLL1 (11728026_x_at) / Fold change /veh IGLL1 (11728026_x_at): dose or concentration left out as unconfirmed",
  "conditions": "ProbeSet 11720154_at; LIST B",
  "data": [
    {"molecule": "Nc1ncn([C@@H]2O[C@H](CO)[C@@H](O)[C@H]2O)c(=O)n1", "note": "[azacitidine]", "values": [
      {"measurement": "RFU, NRIP1", "value": 462.80, "unit": "RFU"}
    ]}
  ]
}
